# Source: patent US8383681B2, “Droxidopa and pharmaceutical composition thereof for the treatment of mood disorders, sleep disorders or attention deficit disorders” (Chelsea Therapeutics, Inc., priority 2008, dated 2013)
# “Also recorded” adds a separate entry of the source.
# Tests used:
# male CD-1 mice = assay: murine Forced Swim Test (FST), a mouse model of depression; type: in vivo; settings: intraperitoneal; for effect on length of time spent immobile / depression, in words: doses per Table 1, ANOVA followed by T-test, versus vehicle; for length of time the mice spent immobile (average time immobile): one hour after dosing, immobility within the last 4 minutes of 6 minutes, mg/kg per Table 1: desipramine 10, entacapone 30, fluoxetine 18, venlafaxine 10, amitriptyline 10, droxidopa 400, carbidopa 20
# Protocol: The effect of droxidopa, alone or in combination with other drugs, in the treatment of depression was evaluated using the murine Forced Swim Test (FST), a mouse model of depression commonly used to evaluate antidepressive drugs. Depression (i.e., “learned helplessness” as evaluated by the FST model) was measured using the method of Porsolt et al., Arch. Int. Pharmacodyn. (1977), 229: 327-336. Briefly, male CD-1 mice weighing 22 g (±2 g) were fasted overnight prior to testing. The mice were randomized into 11 groups of 10 mice each. Mice in each group were treated with the vehicle alone, a drug, or a drug composition as outlined in Table 1 and returned to their respective groups.
# In Table 1, the vehicle—2% TWEEN® 80 (i.e., polysorbate 80)—was included in all test compositions. One hour after dosing, the test mice were placed in a 1 liter volume glass beaker (height: 14.5 cm, diameter: 10.5 cm) containing water 6 cm in height at room temperature (22 to 24° C.) for 6 minutes. The duration of animal immobility within the last 4 minutes was then recorded. A mouse was judged to be immobile when it ceased struggling and remained floating in the water making only those movements necessary to keep its head above water. Data were analyzed by ANOVA for significant differences in group means, followed by T-test to distinguish statistically significant groups as appropriate.
# MAO-A = biological target: T1, MAO-A (Homo sapiens, UniProt P21397); settings: MAO-A versus MAO-B; cited from earlier work
# T1 sequence (P21397 1-527): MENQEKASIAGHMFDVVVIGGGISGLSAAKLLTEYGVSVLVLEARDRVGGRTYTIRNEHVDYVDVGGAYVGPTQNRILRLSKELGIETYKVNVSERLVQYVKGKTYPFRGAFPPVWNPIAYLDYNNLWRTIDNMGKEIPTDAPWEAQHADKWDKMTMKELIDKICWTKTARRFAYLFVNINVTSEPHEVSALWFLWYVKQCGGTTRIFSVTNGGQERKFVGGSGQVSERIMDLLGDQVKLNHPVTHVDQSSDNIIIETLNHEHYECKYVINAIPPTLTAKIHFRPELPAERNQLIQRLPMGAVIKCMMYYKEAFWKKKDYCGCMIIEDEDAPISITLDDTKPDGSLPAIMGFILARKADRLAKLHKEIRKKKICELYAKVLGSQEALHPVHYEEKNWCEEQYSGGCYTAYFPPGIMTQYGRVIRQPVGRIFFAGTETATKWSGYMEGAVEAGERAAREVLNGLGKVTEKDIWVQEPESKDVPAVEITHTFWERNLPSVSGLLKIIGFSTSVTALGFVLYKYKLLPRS
SMILES,"effect on length of time spent immobile / depression, in words (male CD-1 mice)",length of time the mice spent immobile (average time immobile) (male CD-1 mice) [s],selectivity for MAO-A than MAO-B (MAO-A)
CN(C)CCC=C1c2ccccc2CCc2ccccc21 [amitriptyline],significant decrease,60.0,
CNCCCN1c2ccccc2CCc2ccccc21 [desipramine],did not significantly decrease; also recorded: failed to decrease depression,136.4,
"CCN(CC)C(=O)/C(C#N)=C/c1cc(O)c(O)c([N+](=O)[O-])c1 [entacapone, (E)-2-cyano-N,N-diethyl-3-(3,4-dihydroxy-5-nitrophenyl)propenamide]",did not significantly decrease,129.9,
CNCCC(Oc1ccc(C(F)(F)F)cc1)c1ccccc1 (centres unmarked) [fluoxetine],did not significantly decrease; also recorded: failed to decrease depression,158.2,
O=C(NCCN1CCOCC1)c1ccc(Cl)cc1 [moclobemide],,,approximately three times more selective for MAO-A than MAO-B
COc1ccc(C(CN(C)C)C2(O)CCCCC2)cc1 (centres unmarked) [venlafaxine],did not significantly decrease; also recorded: failed to decrease depression,117.5,
